Measurements: article PMC4417528, “Loureirin B, an essential component of Sanguis Draxonis, inhibits Kv1.3 channel and suppresses cytokine release from Jurkat T cells” (Cell & Bioscience, 2014)

Legend:
Assay type in all cases: cell-based
[1] = molecular target: T1, mKv1.3-A418C (Mus musculus, UniProt P16390, A418C); experiment: whole-cell patch clamp, HEK293T cells, steady-state current at +[…] mV
T1 construct: gene Kcna3; mKv1.3 mutant expressed in HEK293T cells

[2] = molecular target: T2, Kv1.3 (Homo sapiens, UniProt P22001); experiment: whole-cell patch clamp, Jurkat T cells
T2 construct: gene KCNA3; endogenous Kv1.3 in Jurkat T cells
T2 sequence (P22001 whole entry): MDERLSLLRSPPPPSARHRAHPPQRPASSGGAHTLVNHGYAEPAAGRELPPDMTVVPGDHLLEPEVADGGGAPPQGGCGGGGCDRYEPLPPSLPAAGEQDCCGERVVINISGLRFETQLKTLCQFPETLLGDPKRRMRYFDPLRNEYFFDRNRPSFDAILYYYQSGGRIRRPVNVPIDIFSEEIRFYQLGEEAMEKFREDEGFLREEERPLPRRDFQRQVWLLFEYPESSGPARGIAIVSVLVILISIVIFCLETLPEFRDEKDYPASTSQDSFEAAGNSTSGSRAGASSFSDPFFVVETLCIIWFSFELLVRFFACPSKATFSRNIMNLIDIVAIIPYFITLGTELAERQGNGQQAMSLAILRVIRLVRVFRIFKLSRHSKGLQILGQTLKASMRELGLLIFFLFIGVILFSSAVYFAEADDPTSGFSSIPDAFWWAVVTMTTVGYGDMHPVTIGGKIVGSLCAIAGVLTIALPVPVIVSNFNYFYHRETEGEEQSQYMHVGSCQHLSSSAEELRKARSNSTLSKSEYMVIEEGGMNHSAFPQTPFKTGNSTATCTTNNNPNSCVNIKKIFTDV

[3] = molecular target: T3, mKv1.3-H404T (Mus musculus, UniProt P16390, H404T); experiment: whole-cell patch clamp, HEK293T cells, steady-state current at +[…] mV
T3 construct: gene Kcna3; mKv1.3 mutant expressed in HEK293T cells
T3 sequence (P16390 whole entry H404T): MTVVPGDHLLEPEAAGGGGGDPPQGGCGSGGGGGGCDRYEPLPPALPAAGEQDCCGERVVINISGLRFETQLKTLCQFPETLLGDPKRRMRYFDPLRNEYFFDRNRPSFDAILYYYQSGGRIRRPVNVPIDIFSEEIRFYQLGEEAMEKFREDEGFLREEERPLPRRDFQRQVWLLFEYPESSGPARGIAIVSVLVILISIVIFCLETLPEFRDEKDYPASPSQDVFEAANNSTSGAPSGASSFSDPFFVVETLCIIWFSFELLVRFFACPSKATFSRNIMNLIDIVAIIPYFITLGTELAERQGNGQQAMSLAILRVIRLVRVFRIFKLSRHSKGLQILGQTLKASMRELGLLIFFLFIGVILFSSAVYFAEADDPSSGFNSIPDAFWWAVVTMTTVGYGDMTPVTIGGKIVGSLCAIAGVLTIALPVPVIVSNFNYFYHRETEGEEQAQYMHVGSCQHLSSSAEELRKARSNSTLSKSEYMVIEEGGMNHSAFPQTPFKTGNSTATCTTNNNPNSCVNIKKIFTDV

[4] = molecular target: T4, mKv1.3 (Mus musculus, UniProt P16390); experiment: as above
T4 construct: gene Kcna3; wild-type mKv1.3 expressed in HEK293T cells
T4 sequence (P16390 whole entry): as the sequence (P16390 whole entry H404T) above, with T404H counted along it

T1 sequence (P16390 whole entry A418C): as the sequence (P16390 whole entry H404T) above, with T404H, A418C counted along it

Structure (SMILES): COc1cc(OC)c(CCC(=O)c2ccc(O)cc2)c(OC)c1 [LrB, loureirin B]
- IC50 [1]: 29.1 ± 7.1 µM
- IC50 [2]: 19.9 ± 1.8 µM
- IC50 [3]: 116 ± 19.8 µM
- IC50 [4]: 7.2 ± 0.6 µM
